Results taken from paper PMC9848259 (Journal of Enzyme Inhibition and Medicinal Chemistry, 2023).

Tests used:
[1] = biological target: T1, AChE (from the electric eel) (Electrophorus electricus, UniProt O42275); assay: biochemical
T1 construct: purchased Sigma Aldrich
Protocol: (§1) The capacity of the novel cyclopentaquinoline hybrids to inhibit AChE (from the electric eel) and BuChE (from equine serum) were determined by the modified colorimetric Ellman’s method[38]^,[39]. Both enzymes, DTNB – Ellman’s reagent (5,5′-dithiobis-(2-nitrobenzoic acid)), acetyltiocholine iodide (ATCI) were obtained from Sigma Aldrich. AChE and BuChE samples in phosphate buffer (PBS) pH 8.0 were incubated in 96-well plates in the presence of the substrate (ATCI), 76 µl of DTNB and the tested compound at various concentration at room temperature for 10 min (AChE) or eight minutes (BuChE).

Aβ42 = biological target: T2, Aβ42 (Homo sapiens, UniProt P05067); assay: In cellulo β-amyloid assay, Th-S fluorescence in E. coli over-expressing Aβ42; format: cell-based, Escherichia coli; conditions: read-out: anti-amyloid (inhibition) capacity for Aβ42
T2 construct: expressed in transfected cells; host or cells: Escherichia coli BL21 (DE3), pET vector
T2 sequence (P05067 672-713): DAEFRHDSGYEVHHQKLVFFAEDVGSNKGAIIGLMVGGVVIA
Protocol: Inhibition assay in Escherichia coli cells over-expressing amyloid proteins. […] Escherichia coli competent cells BL21 (DE3) were transformed with the required pET vectors carrying the DNA sequence of Aβ42 peptide. Because of the addition of the initiation codon ATG in front of genes, the over-expressed Aβ42 contains an additional methionine residue at their N terminus. For overnight culture preparation, a colony of BL21 (DE3) bearing the plasmid to be expressed was inoculated in 10 ml of M9 minimal medium containing 50 μg/ml of kanamycin at 37 °C. […] The bacterial culture was then grown at 37 °C, with orbital agitation of 250 rpm. When the cell density reached OD600nm–0.6, 980 μL of the culture were transferred into 1.5 ml conical tubes containing 10 μL of the compound to be tested dissolved in DMSO, and 10 μL of 100 mM isopropyl 1-thio-β-D-galactopyranoside (IPTG). The final concentration of the compound was set to 10 μM. The samples were grown overnight at 37 °C under agitation at 1400 rpm, using a Thermomixer (Eppendorf, Hamburg, Germany). […]
The fluorescence normalisation was carried out considering as 100% the Th-S fluorescence of the bacterial cells expressing Aβ42 in the absence of drug, and 0% the Th-S fluorescence of the bacterial cells non-expressing Aβ42 (in absence of the protein production inductor, IPTG). […]

[2] = biological target: T3, BuChE (from equine serum) (Equus caballus, UniProt P81908); assay: biochemical
T3 construct: purchased Sigma Aldrich; host or cells: equine serum
T3 sequence (P81908 whole entry): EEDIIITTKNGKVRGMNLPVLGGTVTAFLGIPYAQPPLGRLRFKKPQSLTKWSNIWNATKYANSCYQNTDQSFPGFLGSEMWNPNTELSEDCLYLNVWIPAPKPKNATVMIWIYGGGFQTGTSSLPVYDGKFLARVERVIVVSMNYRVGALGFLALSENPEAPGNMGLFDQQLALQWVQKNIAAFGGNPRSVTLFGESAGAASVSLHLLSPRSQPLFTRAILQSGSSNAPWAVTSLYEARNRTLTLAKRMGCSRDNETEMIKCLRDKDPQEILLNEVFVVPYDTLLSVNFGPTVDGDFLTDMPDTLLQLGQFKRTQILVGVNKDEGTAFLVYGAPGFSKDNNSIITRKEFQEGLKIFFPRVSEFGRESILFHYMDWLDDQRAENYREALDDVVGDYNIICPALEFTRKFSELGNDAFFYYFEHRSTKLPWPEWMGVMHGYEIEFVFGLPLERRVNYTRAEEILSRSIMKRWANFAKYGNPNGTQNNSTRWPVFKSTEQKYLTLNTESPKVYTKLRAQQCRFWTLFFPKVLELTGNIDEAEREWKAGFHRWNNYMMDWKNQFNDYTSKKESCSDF
Protocol: as §1

[3] = means ± SD of three experiments

T1 sequence (O42275 24-633): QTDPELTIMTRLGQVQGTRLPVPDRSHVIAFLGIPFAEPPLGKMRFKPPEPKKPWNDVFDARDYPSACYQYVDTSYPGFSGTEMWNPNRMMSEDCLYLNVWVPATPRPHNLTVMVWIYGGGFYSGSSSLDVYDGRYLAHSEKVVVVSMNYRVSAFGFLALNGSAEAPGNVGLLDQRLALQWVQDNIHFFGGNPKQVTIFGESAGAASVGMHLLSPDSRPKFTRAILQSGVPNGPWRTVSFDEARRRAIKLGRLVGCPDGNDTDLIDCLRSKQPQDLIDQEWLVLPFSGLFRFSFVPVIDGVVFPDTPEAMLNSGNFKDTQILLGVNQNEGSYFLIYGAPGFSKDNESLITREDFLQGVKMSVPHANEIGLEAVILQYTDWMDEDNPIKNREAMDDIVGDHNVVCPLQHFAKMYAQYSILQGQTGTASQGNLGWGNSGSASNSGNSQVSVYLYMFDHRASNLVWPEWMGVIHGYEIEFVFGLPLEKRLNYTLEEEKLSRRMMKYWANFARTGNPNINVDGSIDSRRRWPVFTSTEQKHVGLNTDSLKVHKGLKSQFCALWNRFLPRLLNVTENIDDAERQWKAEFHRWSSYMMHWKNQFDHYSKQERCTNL

Compound: O=C(NCCCCCCNc1c2c(nc3ccccc13)CCC2)c1cc(Cl)cc(Cl)c1 [Compound 3e]
- Selectivity for AChE ([1]; IC50(BuChE)/IC50(AChE)): 0.89
- IC50 [1, 3]: 131 ± 16 nM
- inhibition at 10 µM (Aβ42): 52.4%
- Selectivity for BuChE ([2]; IC50(AChE)/IC50(BuChE)): 1.13
- IC50 [2, 3]: 116 ± 6 nM
